Legend:
[1] = molecular target: F. tularensis ParE (full length) (Francisella tularensis, UniProt A0A0J9WZF0); test: biochemical
[2] = molecular target: E. coli GyrB (full length) (Escherichia coli, UniProt P0AES6); test: biochemical

F. tularensis ParE (full length), sequence (A0A0J9WZF0 whole entry, looked up): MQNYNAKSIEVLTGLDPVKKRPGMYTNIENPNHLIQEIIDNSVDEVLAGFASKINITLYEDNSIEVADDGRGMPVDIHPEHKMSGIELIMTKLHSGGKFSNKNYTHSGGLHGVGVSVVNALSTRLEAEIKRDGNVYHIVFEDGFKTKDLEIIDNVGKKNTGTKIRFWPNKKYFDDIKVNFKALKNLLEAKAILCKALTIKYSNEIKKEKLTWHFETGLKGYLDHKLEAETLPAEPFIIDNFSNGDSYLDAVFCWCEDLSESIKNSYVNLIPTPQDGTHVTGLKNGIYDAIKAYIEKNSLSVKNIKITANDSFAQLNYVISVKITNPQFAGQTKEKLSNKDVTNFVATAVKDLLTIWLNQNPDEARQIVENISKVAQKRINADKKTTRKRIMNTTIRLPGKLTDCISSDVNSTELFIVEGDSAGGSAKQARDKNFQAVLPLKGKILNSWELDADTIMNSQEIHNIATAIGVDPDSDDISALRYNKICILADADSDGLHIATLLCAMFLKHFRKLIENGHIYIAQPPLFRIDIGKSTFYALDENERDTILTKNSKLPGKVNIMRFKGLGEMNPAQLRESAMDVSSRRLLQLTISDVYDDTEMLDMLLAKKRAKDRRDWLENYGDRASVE

Row | SMILES | Ki [1] | Ki [2]
1 | CNc1cc(F)cc2c1[nH]c1nc(Oc3cnc(C)nc3)nc(N3C[C@H]4CCN[C@H]4C3)c12 [C3, 6-fluoro-4-((3aR,6aR)-hexahydropyrrolo[3,4-b]pyrrol-5(1H)-yl)-N-methyl-2-((2-methylpyrimidin-5-yl)oxy)-9H-pyrimido[4,5-b]indol-8-amine] | < 0.4 nM | 
2 | CNc1cc(F)cc2c1[nH]c1nc(Oc3cnc(C)nc3)nc(N3C[C@@H]4[C@H](N)C[C@]4(C)C3)c12 [C4, 4-((1S,5R,6R)-6-amino-1-methyl-3-azabicyclo[3.2.0]heptan-3-yl)-6-fluoro-N-methyl-2-((2-methylpyrimidin-5-yl)oxy)-9H-pyrimido[4,5-b]indol-8-amine] | 0.8 nM | 0.3 nM

From publication PMC3873466 (PLoS ONE, 2013)
